Article PMC5053523, “In Vitro Antibacterial Activity of Rhodanine Derivatives against Pathogenic Clinical Isolates” (PLoS ONE, 2016)
Converted amounts (≈) assume the structure as drawn. Read-outs that look alike come from different tables or passages of the source.

Tests used:
Escherichia coli Δ acrAB = test: MIC against E. coli 1411 and AcrAB efflux pump deficient E. coli SM1411Δ acrAB; format: cell-based
Procedure: (§1) The MIC of the rhodanines and control antibiotics, in the presence of a sub-inhibitory concentration of colistin or polymixin B nonapeptide (PMBN), against Gram-negative bacteria was evaluated as described before. The antibacterial activity of the rhodanines was further investigated against E. coli SM1411Δ acrAB, a strain that is deficient in the multidrug-resistant AcrAB efflux pump, as described before.

Klebsiella pneumoniae = test: MIC with/without sub-MIC colistin, Klebsiella pneumoniae; format: cell-based
Summary of the method: (§2)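 Compounds plus sub-inhibitory colistin or PMBN; MIC against Gram-negatives, with control antibiotics in parallel.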

Escherichia coli O157:H7 [1] = test: MIC with/without PMBN, Escherichia coli O157:H7; format: cell-based
Summary of the method: as §2

Acinetobacter baumannii [2] = test: MIC with/without PMBN, Acinetobacter baumannii; format: cell-based
Summary of the method: as §2

Salmonella Typhimurium [3] = test: MIC with/without sub-MIC colistin, Salmonella Typhimurium; format: cell-based
Summary of the method: as §2

B. cereus = test: Broth microdilution MIC/MBC, B. cereus; format: cell-based; conditions: Bacillus cereus; for MBC: read-out: MBC; for MIC: read-out: MIC
Source text: The broth microdilution technique was used, followed by subculturing on agar plates that were rhodanine—free.

Pseudomonas aeruginosa [4] = test: MIC with/without sub-MIC colistin, Pseudomonas aeruginosa; format: cell-based
Summary of the method: as §2

Bacillus Strains = test: Broth microdilution MIC50/MIC90 and MIC range, Bacillus strains panel; format: cell-based, Bacillus spp.; conditions: 10 Bacillus strains
Source text: The broth microdilution technique was used, followed by subculturing on agar plates that were rhodanine—free. […] The MICs reported represent the lowest concentration of each compound necessary to inhibit bacterial growth and the MBCs represent the lowest concentration required to reduce the initial bacterial inoculum by ≥ 99.9%.

MRSA USA300 = test: MIC against MRSA USA300 with and without 4% human serum albumin; format: cell-based, Staphylococcus aureus; conditions: Staphylococcus aureus, read-out: MIC against MRSA USA300
Summary of the method: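 MIC measured in tryptic soy broth spiked with 4% HSA and without it, using CLSI broth microdilution on MRSA USA300. Value reported is the lowest concentration preventing bacterial growth.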

Acinetobacter baumannii [5] = test: Broth microdilution MIC, Acinetobacter baumannii; format: cell-based
P. aeruginosa = test: Broth microdilution MIC, P. aeruginosa; format: cell-based; conditions: Pseudomonas aeruginosa
K. pneumoniae = test: Broth microdilution MIC, K. pneumoniae; format: cell-based
[6] = system: vancomycin resistant enterococci (VRE) E. faecalis; test: Broth microdilution MIC/MBC, VRE E. faecalis; format: cell-based; conditions: for MIC: read-out: MIC
Pseudomonas aeruginosa [7] = test: MIC with/without PMBN, Pseudomonas aeruginosa; format: cell-based
Summary of the method: as §2

Escherichia coli O157:H7 [8] = test: MIC with/without sub-MIC colistin, Escherichia coli O157:H7; format: cell-based
Summary of the method: as §2

[9] = system: vancomycin resistant enterococci (VRE) E. faecium; test: Broth microdilution MIC/MBC, VRE E. faecium; format: cell-based; conditions: for MIC: read-out: MIC
Salmonella Typhimurium [10] = test: MIC with/without PMBN, Salmonella Typhimurium; format: cell-based
Procedure: as §1

[11] = Salmonella enterica, ATCC 700720 / TYPHIMURIUM
[12] = NRS201, B. cereus NRS 201 NR-2488
[13] = E. faecalis NR31972 Strain SF 28073
[14] = E. faecium HM 968 Strain ERV102
[15] = E. faecium NR31914 Strain E0120
[16] = E. faecium Patient #1–1 NR-31903

O=C(O)[C@@H](Cc1ccccc1)N1C(=O)/C(=C/c2cccc(Oc3ccc(F)cc3)c2)SC1=S [Rh 4] showed an MIC (Escherichia coli Δ acrAB; E.coli 1411) greater than 64 µM, an MIC (Escherichia coli Δ acrAB; E.coli 1411 SM (Δ acrAB, AcrAB efflux pump deficient)) greater than 64 µM and an MIC (Klebsiella pneumoniae; Klebsiella pneumoniae ATCC BAA 2146, colistin (+) […]) greater than 64 µM. For the same molecule, the MIC (Klebsiella pneumoniae; Klebsiella pneumoniae, BAA2146) was greater than 128 µM, the MIC (Escherichia coli O157:H7 [1]; Escherichia coli O157:H7 ATCC 35150, PMBN (+) 4 μg/mL, read-out: MIC) was 8 µM (≈ 3.84 µg/mL) and the MIC (Escherichia coli O157:H7 [1]; Escherichia coli O157:H7 ATCC 700728, PMBN (+) 4 μg/mL, read-out: MIC) was greater than 64 µM. It also gave an MIC (Escherichia coli O157:H7 [1]; Escherichia coli, ATCC35150) greater than 256 µM, an MIC (Escherichia coli O157:H7 [1]; Escherichia coli, ATCC700728) greater than 128 µM and an MIC (Acinetobacter baumannii [2]; Acinetobacter baumannii ATCC BAA747, PMBN (+) 4 μg/mL, read-out: MIC) greater than 64 µM. The MIC (Acinetobacter baumannii [2]; Acinetobacter baumannii ATCC BAA19606, PMBN (+) 4 μg/mL, read-out: MIC) was greater than 64 µM, the MIC (Acinetobacter baumannii [2]; Acinetobacter baumannii, ATCCBAA747) was greater than 128 µM and the MIC (Acinetobacter baumannii [2]; Acinetobacter baumannii, ATCCBAA19606) was greater than 128 µM. For the same molecule, the MIC (Salmonella Typhimurium [3]; Salmonella Typhimurium ATCC 700720, colistin (+) […], read-out: MIC) was greater than 64 µM, the MIC (Salmonella Typhimurium [3]; [11]) was greater than 128 µM and the MBC (B. cereus; B. cereus BAG1O-2 NR-28582) was 8 µM (≈ 3.84 µg/mL). The MIC (B. cereus; B. cereus BAG1O-2 NR-28582) was 8 µM (≈ 3.84 µg/mL), the MBC (B. cereus; B. cereus BAG1X1-1 NR-28575) was 8 µM (≈ 3.84 µg/mL) and the MIC (B. cereus; B. cereus BAG1X1-1 NR-28575) was 8 µM (≈ 3.84 µg/mL). It also gave an MBC (B. cereus; B. cereus BAG1X2-1 NR-28578) of 8 µM (≈ 3.84 µg/mL), an MIC (B. cereus; B. cereus BAG1X2-1 NR-28578) of 8 µM (≈ 3.84 µg/mL) and an MBC (B. cereus; B. cereus G9241 NR-9564) of 16 µM (≈ 7.67 µg/mL). It also gave an MIC (B. cereus; B. cereus G9241 NR-9564) of 16 µM (≈ 7.67 µg/mL), an MBC (B. cereus; B. cereus VD014 NR-22141) of 8 µM (≈ 3.84 µg/mL) and an MIC (B. cereus; B. cereus VD014 NR-22141) of 8 µM (≈ 3.84 µg/mL). For the same molecule, the MBC (B. cereus; B. cereus VD115 NR-22148) was 8 µM (≈ 3.84 µg/mL), the MIC (B. cereus; B. cereus VD115 NR-22148) was 8 µM (≈ 3.84 µg/mL) and the MBC (B. cereus; B. cereus VD148 NR-22150) was 8 µM (≈ 3.84 µg/mL). The MIC (B. cereus; B. cereus VD148 NR-22150) was 8 µM (≈ 3.84 µg/mL), the MBC (B. cereus; [12]) was greater than 64 µM and the MIC (B. cereus; [12]) was 8 µM (≈ 3.84 µg/mL). The MIC (Pseudomonas aeruginosa [4]; Pseudomonas aeruginosa ATCC 921, colistin (+) […], read-out: MIC) was greater than 64 µM, the MIC (Pseudomonas aeruginosa [4]; Pseudomonas aeruginosa, ATCC921) was greater than 128 µM and the MIC50 (Bacillus Strains) was 8 µM (≈ 3.84 µg/mL). The MIC90 (Bacillus Strains) was 16 µM (≈ 7.67 µg/mL), the MIC (MRSA USA300; 24 h, Media TSB + 4% HSA) was greater than 64 µM and the MIC (MRSA USA300; Media TSB) was 16 µM (≈ 7.67 µg/mL). For the same molecule, the MIC (Acinetobacter baumannii [5]; ATCC13345) was greater than 128 µM, the MIC (Acinetobacter baumannii [5]; ATCC17786) was greater than 128 µM and the MIC (P. aeruginosa; ATCC9721) was greater than 128 µM. It also gave an MIC (P. aeruginosa; ATCC15442) greater than 128 µM, an MIC (K. pneumoniae; K. pneumoniae NR-15417) greater than 128 µM and an MIC (K. pneumoniae; Klebsiella pneumoniae) greater than 128 µM. The MBC ([6]; E. faecalis ERV103 HM-934) was 32 µM (≈ 15.3 µg/mL), the MIC ([6]; E. faecalis ERV103 HM-934) was 32 µM (≈ 15.3 µg/mL) and the MBC [6, 13] was 32 µM (≈ 15.3 µg/mL). The MIC [6, 13] was 32 µM (≈ 15.3 µg/mL), the MBC ([6]; E. faecalis R712 HM-335) was 32 µM (≈ 15.3 µg/mL) and the MIC ([6]; E. faecalis R712 HM-335) was 16 µM (≈ 7.67 µg/mL). For the same molecule, the MBC ([6]; E. faecalis S613 HM-334) was 32 µM (≈ 15.3 µg/mL), the MIC ([6]; E. faecalis S613 HM-334) was 32 µM (≈ 15.3 µg/mL) and the MBC ([6]; E. faecalis TX0104 HM-201) was 32 µM (≈ 15.3 µg/mL). The MIC ([6]; E. faecalis TX0104 HM-201) was 32 µM (≈ 15.3 µg/mL), the MIC (Pseudomonas aeruginosa [7]; Pseudomonas aeruginosa ATCC 9721, PMBN (+) 4 μg/mL, read-out: MIC) was greater than 64 µM and the MIC (Pseudomonas aeruginosa [7]; Pseudomonas aeruginosa, ATCC9721) was greater than 128 µM. For the same molecule, the MIC (Escherichia coli O157:H7 [8]; Escherichia coli O157:H7 ATCC 35150, colistin (+) […], read-out: MIC) was greater than 64 µM, the MIC (Escherichia coli O157:H7 [8]; Escherichia coli O157:H7 ATCC 700728, colistin (+) […], read-out: MIC) was greater than 64 µM and the MIC (Escherichia coli O157:H7 [8]; Escherichia coli, ATCC35150) was greater than 128 µM. It also gave an MIC (Escherichia coli O157:H7 [8]; Escherichia coli, ATCC700728) greater than 128 µM, an MBC ([9]; E. faecium E417 HM-965) greater than 64 µM and an MIC ([9]; E. faecium E417 HM-965) of 16 µM (≈ 7.67 µg/mL). For the same molecule, the MBC ([9]; E. faecium E1071 NR-28978) was 64 µM (≈ 30.7 µg/mL), the MIC ([9]; E. faecium E1071 NR-28978) was 32 µM (≈ 15.3 µg/mL) and the MBC [9, 14] was 64 µM (≈ 30.7 µg/mL). It also gave an MIC [9, 14] of 32 µM (≈ 15.3 µg/mL), an MBC [9, 15] of 64 µM (≈ 30.7 µg/mL) and an MIC [9, 15] of 32 µM (≈ 15.3 µg/mL). It also gave an MBC [9, 16] of 64 µM (≈ 30.7 µg/mL), an MIC [9, 16] of 16 µM (≈ 7.67 µg/mL) and an MIC (Salmonella Typhimurium [10]; Salmonella Typhimurium ATCC 700720, PMBN (+) 4 μg/mL, read-out: MIC) greater than 128 µM. It also gave an MIC (Salmonella Typhimurium [10]; [11]) greater than 128 µM.
